One data set deals with T1, CSNK1D (Homo sapiens, UniProt P48730).
T1 construct: made in house
As to the kind of experiment: Liability panel screening by DSF: CSNK1D. Format: binding. Conditions: DSF, 20 µM, n=2; for ΔTm at 20 µM: read-out: Mean ΔTM CSNK1D. Summed up: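 Recombinant protein at 2 µM in 10 mM HEPES pH 7.5 with 500 mM NaCl was mixed with SYPRO Orange (1:1000) and heated at 3 °C/min up to 85 °C. Tm was taken as the Boltzmann-fit inflection point. Shifts are ∆Tm in K from technical duplicates.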
For orientation: In DSF a fluorescence change marks the thermal transition of the protein.

Data set [1] concerns HEK293T cells. As to the kind of experiment: Cytotoxicity: necrosis induction (red fluorescent dye for permeable plasma membranes).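 Also: compounds applied in DMEM high glucose with 0.1% FCS and 0.1% DMSO, necrotic HEK293T cells counted by red staining of cells whose plasma membranes had become permeable.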 Format: cell-based. To be noted: 24 h, necrotic cell count normalized to 0.1% DMSO, single replicates.
Data set [2] concerns HEK293T cells. Briefly: Cytotoxicity: metabolic activity (WST-8 / CCK-8 assay). Conditions: single replicates. (Tetrazolium dyes change colour on reduction, which living cells bring about.)
Experimental: Cells were incubated with the test compounds at the indicated concentrations solubilized with 0.1% DMSO for 24 h. Growth-rate was determined based on the change in confluence over 24 h normalized to the change in confluence of cells treated with the 0.1% DMSO control (n = 10). Metabolic activity was determined with a water-soluble tetrazolium-8 (WST-8) assay (n = 8) after 24 h treatment. Apoptotic cells were detected with a fluorogenic DNA dye coupled to the caspase-3/7 recognition sequence (DEVD) after 24 h treatment and the apoptotic cell count was normalized to 0.1% DMSO treated cells (n = 6).
HEK293T cells (German Collection of Microorganisms and Cell Culture GmbH, DSMZ; #ACC305) were cultured in DMEM high glucose, supplemented with 10% fetal calf serum (FCS), sodium pyruvate (1 mM), penicillin (100 µ/mL) and streptomycin (100 µg/mL) at 37 °C and 5% (v/v) CO2, and seeded in pre-coated (10 µg/mL collagen G solution (Merck KgaA; #L7213) for 30 min at 37 °C) 96-well plates (2 × 10^5 cells per well). After 24 h, the cells were treated with the respective NR3 CG compound candidate at the recommended concentration, bexarotene (100 µM) or doxorubicin (30 µM) as positive controls in DMEM high glucose supplemented with 0.1% FCS, penicillin (100 µ/mL), streptomycin (100 µg/mL) and 0.1% DMSO, or 0.1% DMSO alone as an untreated control. Each sample was prepared in at least four biologically independent replicates. […] Thereafter, the medium was aspirated and the cells were incubated for 3 h with 90 µL DMEM high glucose supplemented with 0.2% FCS, penicillin (100 µ/mL) and streptomycin (100 µg/mL) and additionally containing 10 µL Cell Counting Kit 8 solution (CCK-8; MedChemExpress, Monmouth Junction, New York, USA; #HY-K0301), and absorbance was measured at 1 h, 2 h and 3 h of incubation at 450 nm on a Tecan Spark Cyto to assess metabolic activity of the cells. Before drug administration, after the first medium exchange, 24 h after drug administration, and after fluorescence imaging cell confluence was assessed using the Tecan Spark Cyto, to account for changes in cell confluence due to drug administration and cell handling. Compound effects on cell confluence, apoptosis, metabolic activity and necrosis were normalized to the vehicle control of each biological replicate individually.
The test system of another data set is Gal4-VP16. Format: cell-based. To be noted: for VP16 control [fold reporter gene activity]: vs. DMSO ctrl, single replicates n=1-3. A general note: A reporter such as luciferase makes a cellular process visible.
The next data set deals with T2, NR1H3 (LXRα) (Homo sapiens, UniProt Q13133).
T2 construct: expressed in transfected cells; host or cells: HEK293T
T2 sequence (Q13133 209-447 limits assumed): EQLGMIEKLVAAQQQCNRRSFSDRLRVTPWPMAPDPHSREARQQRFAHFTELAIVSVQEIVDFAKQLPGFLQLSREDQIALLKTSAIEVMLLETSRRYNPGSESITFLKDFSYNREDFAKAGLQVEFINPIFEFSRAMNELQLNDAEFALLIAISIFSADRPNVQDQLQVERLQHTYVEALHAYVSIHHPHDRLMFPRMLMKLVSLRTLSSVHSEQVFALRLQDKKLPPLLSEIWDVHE
Briefly: Gal4 hybrid reporter gene assay LXRα. The class given is cell-based. To be noted: n=3. The method, then:
(§1) Reference ligands are listed in the methods section.
(§2) HEK293T cells (ATCC, Manassas, Virgina, USA; #CRL-3216) were cultured to a maximal confluence of 70–80% in DMEM, high glucose, supplemented with 10% FCS, sodium pyruvate (1 mM), penicillin (100 U/mL), and streptomycin (100 μg/mL) at 37 °C and 5% CO2 (v/v), and seeded in clear 96-well plates (4 × 10^4 cells per well). After 20–24 h, medium was changed to Opti-MEM without supplements and the cells were transiently transfected using Lipofectamine™ LTX/Plus™ Reagents (Invitrogen, Carlsbad, California, USA; #15338100) according to the manufacturer’s protocol with pFR-Luc (reporter gene; Stratagene, Agilent Technologies, Santa Clara, California, USA; #219050), pRL-SV40 (control gene for normalization of transfection efficiency and cell growth; Promega, Fitchburg, Wisconsin, USA; #E2231) and one pFA-CMV-hNR-LBD clone coding for the hinge region and ligand binding domain (LBD) of the human NR of interest. Five hours after transfection, the cells were incubated with the NR3 CG compound candidates at the recommended concentrations by changing the medium to Opti-MEM supplemented with penicillin (100 µ/mL) and streptomycin (100 µg/mL) additionally containing 0.1% DMSO and the respective test compound or 0.1% DMSO alone as untreated control. Firefly (reporter) and renilla (control) luminescence were measured after 14–16 h incubation using the Dual-Glo® Luciferase Assay System (Promega, Fitchburg, Wisconsin, USA; #E2980) according to manufacturer’s protocol on a Tecan Spark® 10M multimode microplate reader (Tecan Group AG, Männedorf, Switzerland). To obtain relative light units (RLU) firefly luminescence was divided by renilla luminescence and multiplied by 1000. Fold activation was obtained by dividing the mean RLU of a test sample by the mean RLU of the DMSO (0.1%) control. Experiments were performed in singlets in at least three biologically independent repeats. […]

The target in a further data set is T3, NR1I3 (CAR) (Homo sapiens, UniProt Q14994).
T3 construct: expressed in transfected cells; host or cells: HEK293T
T3 sequence (Q14994 109-352 limits assumed): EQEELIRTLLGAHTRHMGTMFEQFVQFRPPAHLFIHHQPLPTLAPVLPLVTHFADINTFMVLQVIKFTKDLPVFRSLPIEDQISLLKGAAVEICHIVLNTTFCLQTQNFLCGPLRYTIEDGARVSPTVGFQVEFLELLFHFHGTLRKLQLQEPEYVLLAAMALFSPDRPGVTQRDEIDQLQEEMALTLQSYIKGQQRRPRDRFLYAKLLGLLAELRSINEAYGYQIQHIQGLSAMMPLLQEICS
As to the kind of experiment: Gal4 hybrid reporter gene assay CAR. The class given is cell-based. Conditions: n=3. The method, then:
as §1, §2

The mark [3] stands for this setting: 3 µM, HEK293T, 24 h, WST-8, normalized to 0.1% DMSO.
The mark [4] stands for this setting: 1 µM, HEK293T, 24 h, WST-8, normalized to 0.1% DMSO.
Where [5] appears, read: 0.3 µM, HEK293T, 24 h, WST-8, normalized to 0.1% DMSO.

Several values for one entry are separate records, joined by “and”; a condition that tells them apart may be missing. Identical values can stand only once. Like-named read-outs stand apart in the source and are kept apart here.

T1 sequence (P48730 whole entry, species assumed): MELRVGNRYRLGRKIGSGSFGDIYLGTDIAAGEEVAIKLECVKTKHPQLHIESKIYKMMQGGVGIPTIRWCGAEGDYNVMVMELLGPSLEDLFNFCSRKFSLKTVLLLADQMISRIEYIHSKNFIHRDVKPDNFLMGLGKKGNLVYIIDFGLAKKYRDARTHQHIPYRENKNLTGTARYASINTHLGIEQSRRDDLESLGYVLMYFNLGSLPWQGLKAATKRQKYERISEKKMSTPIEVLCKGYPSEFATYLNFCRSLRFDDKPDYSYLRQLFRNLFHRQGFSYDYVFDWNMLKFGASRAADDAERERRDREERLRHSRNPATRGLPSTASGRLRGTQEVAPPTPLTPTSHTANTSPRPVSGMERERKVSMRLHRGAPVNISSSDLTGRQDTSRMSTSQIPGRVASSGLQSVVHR
Text for Gal4-VP16: are labeled according to their mode of action (yellow - agonist, grey - antagonist, grey with label D - degrader) and grouped by their
NR3 subfamily main targets.
reporter activity at the indicated concentrations expressed as mean fold reporter gene activity (n=3).

By ΔTm is commonly meant the change in melting temperature against a reference sample. Regarding `CC#C[C@]1(O)CC[C@H]2[C@@H]3CCC4=CC(=O)CCC4=C3[C@@H](c3ccc(N(C)C)cc3)C[C@@]21C` [Mifepristone], the ΔTm at 20 µM at CSNK1D was 0.0217 °C. Also, in the data set with HEK293T cells [1] (3 µM), the “Necrosis induction [NI]” value is 1.14 and 0.95 and 0.92 and 0.99. Besides, in the data set on HEK293T cells [2] (setting [3]), the “Metabolic activity [MA]” value was 1.08 and 1.01 and 1.00 and 1.09 and 1.04 and 1.03 and 1.16 (2×).
`C[C@@H]1Cc2c([nH]c3ccccc23)[C@@H](c2c(F)cc(/C=C/C(=O)O)cc2F)N1CC(C)(C)F` [AZD9496]: the ΔTm at 20 µM at CSNK1D stood at 0.64 °C. In addition, the “Necrosis induction [NI]” value in the data set with HEK293T cells [1] (1 µM) is 1.09 and 0.96 and 0.78 and 2.03. In the data set with Gal4-VP16 (1 µM), the “VP16 control [fold reporter gene activity]” value is 1.31 fold reporter gene activity and 1.10 fold reporter gene activity and 1.59 fold reporter gene activity. For the same molecule, in the data set with HEK293T cells [2] (setting [4]), the “Metabolic activity [MA]” value was 1.04 (3×) and 1.02 and 0.97 and 0.99 and 1.00 (2×).
For `COc1ccc(-c2coc3cc(O)cc(O)c3c2=O)cc1` [Biochanin A], the “Mean ΔTM CSNK1D” value on CSNK1D is on record as -0.77 K. Besides, at NR1H3 (LXRα) (10 µM), the “Activity on NR1H3 (LXRα)” value was -0.46 mean log10(fold reporter gene activity). Moreover, the “Activity on NR1I3 (CAR)” value on NR1I3 (CAR) (10 µM) was -0.24 mean log10(fold reporter gene activity). Further, in the data set on HEK293T cells [2] (10 µM, DMSO 0.1% = 1.00), the “Metabolic activity [MA]” value is 0.87 and 0.81 and 1.01 and 0.90 and 1.15 and 0.98.
`CC/C(=C(/CC)c1ccc(O)cc1)c1ccc(O)cc1` [Diethylstilbestrol]: the ΔTm at 20 µM on CSNK1D is -0.81 °C. Besides, the “Necrosis induction [NI]” value in the data set on HEK293T cells [1] (0.3 µM) is 0.86 and 0.98 and 1.34; in the data set with HEK293T cells [1] (3 µM), 0.69 and 0.58 and 0.64 and 0.72. The “Metabolic activity [MA]” value was 1.04 (3×) and 0.90 and 0.95 and 1.03 and 0.96 and 1.14 in the data set on HEK293T cells [2] (setting [5]); 0.90 and 0.94 and 1.10 and 1.00 (2×) and 0.60 and 0.78 with HEK293T cells [2] (setting [3]).
Take `CCCC1O[C@@H]2C[C@H]3[C@@H]4CCC5=CC(=O)C=C[C@]5(C)[C@H]4[C@@H](O)C[C@]3(C)[C@]2(C(=O)CO)O1` (stereo partly shown) [Budesonide]: the ΔTm at 20 µM at CSNK1D is -0.0262 °C. Further, the “Metabolic activity [MA]” value in the data set with HEK293T cells [2] (0.3 µM, DMSO 0.1% = 1.00) is 1.02 and 0.97 and 1.07 and 0.99 and 1.12 and 1.03; with HEK293T cells [2] (3 µM, DMSO 0.1% = 1.00), 0.86 and 0.88 and 1.03 (2×) and 1.13 and 0.99.
As for `COc1cc(/C=C(\C#N)C(=O)Nc2nnc(C(F)(F)F)s2)ccc1OCc1ccc(C(F)(F)F)cc1C(F)(F)F` [XCT790], the ΔTm at 20 µM on CSNK1D came out at 0.0531 °C. Further, the “Necrosis induction [NI]” value in the data set on HEK293T cells [1] (1 µM) was 0.92 and 0.82 and 0.84 and 0.79. Further, the “VP16 control [fold reporter gene activity]” value in the data set on Gal4-VP16 (1 µM) was 1.11 fold reporter gene activity and 0.95 fold reporter gene activity and 0.91 fold reporter gene activity. The “Metabolic activity [MA]” value in the data set with HEK293T cells [2] (setting [4]) was 1.06 and 0.99 and 0.98 and 1.09 and 1.00 and 1.02 and 1.05 and 1.01.
`C/C=C1\C(=O)C[C@H]2[C@@H]3CCC4=CC(=O)CC[C@]4(C)[C@H]3CC[C@]12C` [Z-Guggulsterone]: the “Mean ΔTM CSNK1D” value at CSNK1D was 0.63 K. Moreover, the “Activity on NR1H3 (LXRα)” value on NR1H3 (LXRα) (3 µM) is on record as -0.71 mean log10(fold reporter gene activity). Moreover, the “Activity on NR1I3 (CAR)” value at NR1I3 (CAR) (3 µM) is -0.48 mean log10(fold reporter gene activity). For the same molecule, in the data set on HEK293T cells [2] (3 µM, DMSO 0.1% = 1.00), the “Metabolic activity [MA]” value is 1.00 and 0.94 and 1.08 and 1.06 and 1.18 and 1.15.
For the molecule `Cc1ccc2c(NC[C@](O)(CC(C)(C)c3cc(F)cc4c3OCC4)C(F)(F)F)cccc2n1` [Mapracorat], the shift in melting temperature (ΔTm) at 20 µM on CSNK1D is -0.78 °C. For the same molecule, the “Necrosis induction [NI]” value with HEK293T cells [1] (1 µM) was 1.18 and 1.03 and 0.88 and 0.99. The “VP16 control [fold reporter gene activity]” value with Gal4-VP16 (1 µM) was 0.84 fold reporter gene activity and 0.88 fold reporter gene activity and 1.01 fold reporter gene activity. Moreover, at NR1H3 (LXRα) (1 µM, vs. DMSO ctrl), the “Activity on NR targets outside NR3 family [mean log10(fold reporter gene activity)] NR1H3 (LXRα)” value is -0.38 log10(fold reporter gene activity). The “Metabolic activity [MA]” value in the data set with HEK293T cells [2] (setting [4]) is 1.04 and 1.02 (2×) and 0.95 and 0.98 (2×) and 0.94 and 1.03.
On to `CC/C(=C(\c1ccc(O)cc1)c1ccc(OCCN(C)C)cc1)c1ccccc1` [(Z)-4-Hydroxytamoxifen], for which, on CSNK1D, the ΔTm at 20 µM is 0.12 °C. The “Necrosis induction [NI]” value was 0.97 and 1.43 and 0.88 and 1.20 with HEK293T cells [1] (0.3 µM); 1.55 and 1.35 and 1.14 and 1.44 in the data set on HEK293T cells [1] (3 µM). Besides, the “VP16 control [fold reporter gene activity]” value in the data set with Gal4-VP16 (0.3 µM) was 1.09 fold reporter gene activity and 0.88 fold reporter gene activity and 1.33 fold reporter gene activity; with Gal4-VP16 (3 µM), 1.11 fold reporter gene activity and 1.04 fold reporter gene activity and 1.49 fold reporter gene activity. Besides, the “Activity on NR targets outside NR3 family [mean log10(fold reporter gene activity)] NR1I3 (CAR)” value on NR1I3 (CAR) (3 µM, vs. DMSO ctrl) is listed as 1.13 log10(fold reporter gene activity). Also, the “Metabolic activity [MA]” value is 1.00 and 1.02 and 0.89 and 0.98 and 0.96 and 0.95 and 1.06 and 0.84 in the data set on HEK293T cells [2] (setting [5]); 0.88 and 0.94 and 0.92 and 0.98 and 0.96 and 0.89 and 1.00 and 0.84 with HEK293T cells [2] (setting [3]).
On to `CC/C(=C(/c1ccc(/C=C/C(=O)O)cc1)c1ccc2[nH]ncc2c1)c1ccc(F)cc1Cl` [ARN810], for which the ΔTm at 20 µM at CSNK1D is -4.37 °C. The “VP16 control [fold reporter gene activity] (n=3), n=1” value in the data set with Gal4-VP16 (1 µM, replicate n=1) was 1.06 fold. Moreover, the “VP16 control [fold reporter gene activity] (n=3), n=2” value in the data set with Gal4-VP16 (1 µM, replicate n=2) was found to be 1.05 fold. Further, in the data set with Gal4-VP16 (1 µM, replicate n=3), the “VP16 control [fold reporter gene activity] (n=3), n=3” value is recorded as 1.02 fold. Further, the “Metabolic activity [MA]” value in the data set with HEK293T cells [2] (1 µM, DMSO 0.1% = 1.00) is 0.99 and 1.09 and 0.98 and 0.97 and 1.01 and 1.03.
Regarding `CCN(CC)c1ccc(/C=N/NC(=O)c2ccc(O)cc2)cc1` [DY131], at CSNK1D, the ΔTm at 20 µM is -0.0354 °C. Moreover, in the data set on HEK293T cells [1] (3 µM), the “Necrosis induction [NI]” value was 0.73 and 0.89 and 0.91 and 0.92. Moreover, the “VP16 control [fold reporter gene activity]” value in the data set on Gal4-VP16 (3 µM) was 1.12 fold reporter gene activity and 1.24 fold reporter gene activity and 1.20 fold reporter gene activity. Moreover, the “Metabolic activity [MA]” value with HEK293T cells [2] (setting [3]) is 0.98 and 0.95 (2×) and 0.82 and 0.96 and 0.93 and 0.87 and 0.92.
